Experimental findings from the supplement of paper PMC10627819 are described below.

The test system of assay [1] is S. aureus DSM 20231. The experiment in a line: Bliss interaction score (quartile over a dose matrix) (fitness difference); higher = more antagonism (negative = synergy). The method, boiled down: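 Quartiles of the Bliss score were taken over technical, biological and donor/recipient replicates. That score is observed fitness minus the product of the single-drug fitness values, which were inferred from combination data. Fitness itself is OD595 at entry into stationary phase divided by the plate's robust no-drug mean, with a cap at 1.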

Assay [2] has as its system S. aureus DSM 20231. Description: fitness (endpoint OD595 vs no drug) (fraction); higher = more growth. The method in brief:
(§1)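 Fitness is computed from the optical density at which cultures reach stationary phase, divided by the robust mean of no-drug control wells. Any value above 1 is set to 1. Cultures started at OD595 0.01 in 384-well plates with TSB, LB Lennox or CY at 37 °C, and OD595 was read every 30 min for 14 h against a first-reading background.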

Another assay relates to S. aureus Newman. The description is as above. The method, boiled down:
as §1

The next assay deals with S. pneumoniae D39V. Described as above. The method in brief:
as §1

Where [3] appears, read: first compound 0.0156 µg/mL, partner 0.625 µg/mL.
Where [4] appears, read: first compound 0.0156 µg/mL, partner 1.25 µg/mL.
The mark [5] stands for this setting: first compound 0.0156 µg/mL, partner 2.5 µg/mL.
Where [6] appears, read: first compound 0.0312 µg/mL, partner 0.625 µg/mL.
The mark [7] stands for this setting: first compound 0.0312 µg/mL, partner 1.25 µg/mL.
Setting [8] is: first compound 0.0312 µg/mL, partner 2.5 µg/mL.
[9] abbreviates: first compound 0.0625 µg/mL, partner 0.625 µg/mL.
[10] abbreviates: first compound 0.0625 µg/mL, partner 1.25 µg/mL.
[11] abbreviates: first compound 0.0625 µg/mL, partner 2.5 µg/mL.

Molecules are shown by their SMILES.
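Wherever Bliss interaction score (quartile over a dose matrix) is given: first quartile when negative (synergy) and third quartile when positive (antagonism).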

With `C=C1/C(=C\C=C2/CCC[C@]3(C)[C@@H]([C@H](C)CCCC(C)C)CC[C@@H]23)C[C@@H](O)C[C@@H]1O` [Alfacalcidol] + O=C1CN(/N=C/c2ccc([N+](=O)[O-])o2)C(=O)N1 [Nitrofurantoin], in the assay with S. aureus DSM 20231 [1], the Bliss interaction score came out at 0.185.

`CC[C@H](C)[C@H](N)C1=N[C@H](C(=O)N[C@@H](CC(C)C)C(=O)N[C@H](CCC(=O)O)C(=O)N[C@H](C(=O)N[C@H]2CCCCNC(=O)[C@H](CC(N)=O)NC(=O)[C@@H](CC(=O)O)NC(=O)[C@H](Cc3cnc[nH]3)NC(=O)[C@@H](Cc3ccccc3)NC(=O)[C@H]([C@@H](C)CC)NC(=O)[C@@H](CCCN)NC2=O)[C@@H](C)CC)CS1` [Bacitracin] + CCCSc1nc(N[C@@H]2C[C@H]2c2ccc(F)c(F)c2)c2nnn([C@@H]3C[C@H](OCCO)[C@@H](O)[C@H]3O)c2n1 [Ticagrelor]: the Bliss interaction score in the assay on S. aureus DSM 20231 [1] (main component drawn) was -0.27.

For the molecule `CC[C@H](C)[C@H](N)C1=N[C@H](C(=O)N[C@@H](CC(C)C)C(=O)N[C@H](CCC(=O)O)C(=O)N[C@H](C(=O)N[C@H]2CCCCNC(=O)[C@H](CC(N)=O)NC(=O)[C@@H](CC(=O)O)NC(=O)[C@H](Cc3cnc[nH]3)NC(=O)[C@@H](Cc3ccccc3)NC(=O)[C@H]([C@@H](C)CC)NC(=O)[C@@H](CCCN)NC2=O)[C@@H](C)CC)CS1` [Bacitracin] + C[C@H]1C[C@@H]2[C@H]([C@@H](O)C[C@@]3(C)[C@H]2CC[C@]3(O)C(=O)CO)[C@@]2(C)C=CC(=O)C=C12 [Methylprednisolone], the Bliss interaction score in the assay on S. aureus DSM 20231 [1] (main component drawn) is -0.282.

Turning to `O=c1[nH]cc(F)c(=O)[nH]1` [Fluorouracil] + CN(C)C(=O)C(CCN1CCC(O)(c2ccc(Cl)cc2)CC1)(c1ccccc1)c1ccccc1 [Loperamide], in the assay on S. aureus DSM 20231 [1], the Bliss interaction score was determined as 0.195.

With `O=c1[nH]cc(F)c(=O)[nH]1` [Fluorouracil] + CN[C@@H]1[C@H](O[C@H]2[C@H](O[C@H]3[C@H](O)[C@@H](O)[C@H](N=C(N)N)[C@@H](O)[C@@H]3N=C(N)N)O[C@@H](C)[C@]2(O)C=O)O[C@@H](CO)[C@H](O)[C@H]1O [Streptomycin], in the assay with S. aureus DSM 20231 [1], the Bliss interaction score is -0.184.

In the case of `O=c1[nH]cc(F)c(=O)[nH]1` [Fluorouracil] + O=C1CN(/N=C/c2ccc([N+](=O)[O-])o2)C(=O)N1 [Nitrofurantoin], the Bliss interaction score with S. aureus DSM 20231 [1] is -0.206.

With `CC[C@H](c1ccc(O)cc1)[C@@H](CC)c1ccc(O)cc1` [Hexestrol] + CN(C)C(=O)C(CCN1CCC(O)(c2ccc(Cl)cc2)CC1)(c1ccccc1)c1ccccc1 [Loperamide], the Bliss interaction score with S. aureus DSM 20231 [1] was -0.456.

For `CC[C@H](c1ccc(O)cc1)[C@@H](CC)c1ccc(O)cc1` [Hexestrol] + CO[C@@]12[C@H](COC(N)=O)C3=C(C(=O)C(C)=C(N)C3=O)N1C[C@@H]1N[C@@H]12 [MitomycinC], in the assay on S. aureus DSM 20231 [1], the Bliss interaction score is -0.248.

With `CC(C)Cc1ccc(C(C)C(=O)O)cc1` (configuration not stated) [Ibuprofen] + C/C(=C\C(=O)OCCCCCCCCC(=O)O)C[C@@H]1OC[C@H](C[C@@H]2O[C@H]2[C@@H](C)[C@H](C)O)[C@@H](O)[C@H]1O [Pseudomonic acid], in the assay on S. aureus DSM 20231 [1], the Bliss interaction score came out at 0.169.

Regarding `CC(C)Cc1ccc(C(C)C(=O)O)cc1` (configuration not stated) [Ibuprofen] + COc1cc(Cc2cnc(N)nc2N)cc(OC)c1OC [Trimethoprim], the Bliss interaction score in the assay on S. aureus DSM 20231 [1] is -0.145.

As to `CC(=O)NC[C@H]1CN(c2ccc(N3CCOCC3)c(F)c2)C(=O)O1` [Linezolid] + COc1ccc2[nH]c([S+]([O-])Cc3ncc(C)c(OC)c3C)nc2c1 [Omeprazole], the Bliss interaction score with S. aureus DSM 20231 [1] was determined as 0.192.

`CN(Cc1cnc2nc(N)nc(N)c2n1)c1ccc(C(=O)N[C@@H](CCC(=O)O)C(=O)O)cc1` [Methotrexate] + CC1(C)S[C@@H]2[C@H](NC(=O)Cc3ccccc3)C(=O)N2[C@H]1C(=O)O [PenicillinG]: the Bliss interaction score in the assay with S. aureus DSM 20231 [1] is -0.169.

Consider `CN(Cc1cnc2nc(N)nc(N)c2n1)c1ccc(C(=O)N[C@@H](CCC(=O)O)C(=O)O)cc1` [Methotrexate] + COc1cc(Cc2cnc(N)nc2N)cc(OC)c1OC [Trimethoprim], for which, in the assay on S. aureus DSM 20231 [1], the Bliss interaction score is -0.242.

In the case of `CO[C@@]12[C@H](COC(N)=O)C3=C(C(=O)C(C)=C(N)C3=O)N1C[C@@H]1N[C@@H]12` [Mitomycin C] + Cc1ncc([N+](=O)[O-])n1CCO [Metronidazole], the fitness in the assay with S. aureus DSM 20231 [2] (setting [3]) was found to be 0.775; with S. aureus DSM 20231 [2] (setting [4]) it was 0.873; in the assay on S. aureus DSM 20231 [2] (setting [5]) it was 0.799; with S. aureus DSM 20231 [2] (setting [6]) it was 0.756; with S. aureus DSM 20231 [2] (setting [7]), 0.782; in the assay with S. aureus DSM 20231 [2] (setting [8]), 0.779. Moreover, the fitness is 0.593 with S. aureus DSM 20231 [2] (setting [9]); 0.606 with S. aureus DSM 20231 [2] (setting [10]); 0.643 in the assay with S. aureus DSM 20231 [2] (setting [11]); 0.75 in the assay on S. aureus Newman (setting [3]); 0.737 in the assay on S. aureus Newman (first compound 0.0156 µg/mL, partner 0.781 µg/mL, one replicate); 0.766 with S. aureus Newman (setting [4]). Moreover, the fitness worked out at 0.731 with S. aureus Newman (first compound 0.0156 µg/mL, partner 1.562 µg/mL, one replicate); 0.709 in the assay on S. aureus Newman (setting [5]); 0.704 in the assay with S. aureus Newman (first compound 0.0156 µg/mL, partner 3.124 µg/mL, one replicate); 0.649 in the assay on S. aureus Newman (setting [6]); 0.703 in the assay on S. aureus Newman (first compound 0.0312 µg/mL, partner 0.781 µg/mL, one replicate); 0.698 in the assay on S. aureus Newman (setting [7]). Moreover, the fitness with S. aureus Newman (first compound 0.0312 µg/mL, partner 1.562 µg/mL, one replicate) turned out to be 0.689; in the assay with S. aureus Newman (setting [8]), 0.569; in the assay on S. aureus Newman (first compound 0.0312 µg/mL, partner 3.124 µg/mL, one replicate) it was 0.747; in the assay on S. aureus Newman (setting [9]), 0.524; with S. aureus Newman (first compound 0.0625 µg/mL, partner 0.781 µg/mL, one replicate) it was 0.581; in the assay on S. aureus Newman (setting [10]), 0.517. The fitness with S. aureus Newman (first compound 0.0625 µg/mL, partner 1.562 µg/mL, one replicate) came to 0.625; with S. aureus Newman (setting [11]), 0.369; in the assay on S. aureus Newman (first compound 0.0625 µg/mL, partner 3.124 µg/mL, one replicate) it was 0.584; in the assay with S. pneumoniae D39V (first compound 0.001075 µg/mL, partner 1.25 µg/mL), 0.972; in the assay on S. pneumoniae D39V (first compound 0.001075 µg/mL, partner 2.5 µg/mL), 0.974; with S. pneumoniae D39V (first compound 0.001075 µg/mL, partner 5 µg/mL) it was 0.93. The fitness in the assay with S. pneumoniae D39V (first compound 0.002 µg/mL, partner 1.073 µg/mL) was 0.853; in the assay on S. pneumoniae D39V (first compound 0.002 µg/mL, partner 2.145 µg/mL), 0.812; in the assay on S. pneumoniae D39V (first compound 0.002 µg/mL, partner 4.29 µg/mL), 0.791; in the assay on S. pneumoniae D39V (first compound 0.00215 µg/mL, partner 1.25 µg/mL), 0.971; with S. pneumoniae D39V (first compound 0.00215 µg/mL, partner 2.5 µg/mL), 0.984; in the assay with S. pneumoniae D39V (first compound 0.00215 µg/mL, partner 5 µg/mL) it was 0.933. Moreover, the fitness was 0.802 in the assay with S. pneumoniae D39V (first compound 0.004 µg/mL, partner 1.073 µg/mL); 0.806 in the assay with S. pneumoniae D39V (first compound 0.004 µg/mL, partner 2.145 µg/mL); 0.742 in the assay on S. pneumoniae D39V (first compound 0.004 µg/mL, partner 4.29 µg/mL); 0.857 in the assay with S. pneumoniae D39V (first compound 0.0043 µg/mL, partner 1.25 µg/mL); 0.852 in the assay on S. pneumoniae D39V (first compound 0.0043 µg/mL, partner 2.5 µg/mL); 0.836 in the assay on S. pneumoniae D39V (first compound 0.0043 µg/mL, partner 5 µg/mL). Also, the fitness in the assay on S. pneumoniae D39V (first compound 0.008 µg/mL, partner 1.073 µg/mL) amounted to 0.72; in the assay with S. pneumoniae D39V (first compound 0.008 µg/mL, partner 4.29 µg/mL) it was 0.735.
